Converted amounts (≈) assume the structure as drawn.

Results on 30 molecules are retold here after ChEMBL document CHEMBL4184235, “Design, synthesis, SAR and biological investigation of 3-(carboxymethyl)rhodanine and aminothiazole inhibitors of Mycobacterium tuberculosis Zmp1” (Bioorg Med Chem Lett, 2018).

Data set [1] is described as follows: Cytotoxicity against African green monkey Vero cells assessed as reduction in cell viability incubated for 72 hrs by MTT assay. The conditions noted are these: chlorocebus sabaeus. Type of data set: cell-based.
A short description of data set [2]: Cytotoxicity against human THP1 cells assessed as reduction in cell viability incubated for 72 hrs by MTT assay. Type of data set: cell-based. To be noted: THP-1 cells.
Data set [3] has as its system Mycobacterium tuberculosis. The data set is described as follows: Antimycobacterial activity against Mycobacterium tuberculosis H37Ra ATCC […] assessed as reduction in bacterial growth incubated for 7 days by resazurin microtiter assay. In kind it is functional. To be noted: 168 h.
Data set [4] relates to Mycobacterium tuberculosis. The experiment in a line: Antimycobacterial activity against Mycobacterium tuberculosis infected in human THP1 cells assessed as inhibition of microbial growth by measuring colony forming units at 10 ug/ml incubated for 72 hrs followed by plating on Middlebrook 7H11 medium for 21 days. In kind it is functional. To be noted: THP-1, read-out: GI.

Data set [5] has as its system Mycobacterium tuberculosis. The data set is described as follows: Antimycobacterial activity against Mycobacterium tuberculosis infected in human THP1 cells assessed as inhibition of microbial growth by measuring colony forming units at 100 ug/ml incubated for 72 hrs followed by plating on Middlebrook 7H11 medium for 21 days. To be noted: THP-1, read-out: GI. Type of data set: functional.

Data set [6] deals with Mycobacterium tuberculosis. The data set is described as follows: Inhibition of N-terminal enterokinase-cleavable His-tagged full-length Mycobacterium tuberculosis Zmp1 expressed in Escherichia coli BL21(DE3) assessed as residual enzyme activity at 50 uM using MCA-Pro-Leu-Gly-Leu-Dpa-Ala-Arg-NH2 substrate by fluorometry.
Data set [7] can be described thus: Inhibition of N-terminal enterokinase-cleavable His-tagged full-length Mycobacterium tuberculosis Zmp1 expressed in Escherichia coli BL21(DE3) assessed as reduction in enzyme activity at 50 uM using MCA-Pro-Leu-Gly-Leu-Dpa-Ala-Arg-NH2 substrate by fluorometry.

As to `O=C(O)c1ccc(/C=C2\SC(=S)N([C@@H](Cc3ccccc3)C(=O)O)C2=O)cc1`, the CC50 at 72 h in data set [1] is above 125 µg/mL; in data set [2] it was 115 µg/mL (≈ 278 µM). The MIC in data set [3] was above 64 µg/mL. Besides, in data set [4], the inhibition of growth at 10 µg/mL amounted to 57.4%. In data set [5], the inhibition of growth at 100 µg/mL worked out at 58.3%.

For the molecule `COC(=O)c1cccc(Cc2csc(N[C@H](Cc3ccccc3)C(=O)O)n2)c1`, the Activity in data set [6] worked out at 100%.

For the molecule `O=C(O)[C@@H](Cc1ccccc1)Nc1nc(Cc2ccccc2)cs1`, the Activity in data set [6] came to 100%.

In the case of `COc1cccc(/C=C2\SC(=S)N([C@H](Cc3ccccc3)C(=O)O)C2=O)c1`, the Activity in data set [6] came to 10%. Also, in data set [7], the IC50 was 18.4 µM.

As for `N#Cc1ccc(/C=C2\SC(=S)N([C@H](Cc3ccccc3)C(=O)O)C2=O)cc1`, the Activity in data set [6] is 7.1%. Moreover, in data set [7], the IC50 worked out at 6.6 µM.

For the molecule `O=C(O)c1cccc(-c2csc(N[C@H](Cc3ccccc3)C(=O)O)n2)c1`, in data set [6], the Activity turned out to be 100%.

Regarding `COc1ccc(/C=C2\SC(=S)N([C@H](Cc3ccccc3)C(=O)O)C2=O)cc1`, in data set [6], the Activity was found to be 12.3%. Moreover, the half-inhibitory concentration (IC50) in data set [7] was 20.4 µM.

For the molecule `COC(=O)c1ccc(Cc2csc(N[C@H](Cc3ccccc3)C(=O)O)n2)cc1`, the Activity in data set [6] worked out at 61%.

In the case of `O=C(O)[C@@H](Cc1ccccc1)N1C(=O)/C(=C/c2cccs2)SC1=S`, in data set [6], the Activity was 10.4%. Moreover, in data set [7], the IC50 amounted to 11.4 µM.

Turning to `O=C(O)c1ccc(/C=C2\SC(=S)N([C@H](Cc3ccccc3)C(=O)O)C2=O)cc1`, in data set [7], the IC50 was 0.87 µM. Also, the half-maximal cytotoxic concentration (CC50) at 72 h in data set [1] and in data set [2] was above 125 µg/mL in each case. In data set [3], the MIC was above 64 µg/mL. In data set [4], the inhibition of growth at 10 µg/mL is 0.1%. In data set [5], the inhibition of growth at 100 µg/mL worked out at 60%.

In the case of `CC(C)COC(=O)c1ccc(/C=C2\SC(=S)N([C@H](Cc3ccccc3)C(=O)O)C2=O)cc1`, the Activity in data set [6] was found to be 28.1%. For the same molecule, the IC50 in data set [7] was 43.9 µM.

For the molecule `O=C(O)c1ccc(Cc2csc(N[C@H](Cc3ccccc3)C(=O)O)n2)cc1`, in data set [6], the Activity turned out to be 100%.

With `O=C(O)[C@@H](Cc1ccccc1)Nc1nc(-c2ccc([N+](=O)[O-])cc2)cs1`, in data set [6], the Activity was 36.3%. Moreover, in data set [7], the IC50 stood at 35.7 µM.

As to `COc1cccc(Cc2csc(N[C@H](Cc3ccccc3)C(=O)O)n2)c1`, the Activity in data set [6] was found to be 100%.

Consider `O=C(O)[C@@H](Cc1ccccc1)N1C(=O)/C(=C/c2ccncc2)SC1=S`, for which the Activity in data set [6] was determined as 19.1%. Besides, in data set [7], the 50% inhibitory concentration (IC50) turned out to be 26.9 µM.

As for `O=C(OCc1ccccc1)c1cccc(/C=C2\SC(=S)N([C@H](Cc3ccccc3)C(=O)O)C2=O)c1`, in data set [6], the Activity came to 13.5%. Also, in data set [7], the IC50 is 24 µM. Further, the CC50 at 72 h in data set [1] is 23.2 µg/mL (≈ 46.1 µM); in data set [2], 11.2 µg/mL (≈ 22.2 µM). For the same molecule, the MIC in data set [3] is 64 µg/mL (≈ 127 µM). Also, the inhibition of growth at 10 µg/mL in data set [4] was found to be 53.8%.

For `O=C(O)CN1C(=O)/C(=C/c2cccc(C(=O)O)c2)SC1=S`, the Activity in data set [6] turned out to be 11.2%. The IC50 in data set [7] came out at 15.7 µM.

As to `O=C(OCCc1ccccc1)c1ccc(/C=C2\SC(=S)N([C@H](Cc3ccccc3)C(=O)O)C2=O)cc1`, the Activity in data set [6] came out at 58.7%.

In the case of `COc1cccc(/C=C2\SC(=S)N([C@H](C)C(=O)O)C2=O)c1`, the Activity in data set [6] came out at 12.6%. For the same molecule, in data set [7], the IC50 came out at 23.4 µM.

As for `O=C(O)CN1C(=O)/C(=C/c2ccc(C(=O)O)cc2)SC1=S`, in data set [6], the Activity is 10.3%. Also, in data set [7], the half-inhibitory concentration (IC50) stood at 3.9 µM.

For the molecule `COc1cccc(/C=C2\SC(=S)N(CC(=O)O)C2=O)c1`, the Activity in data set [6] worked out at 18.9%. The half-inhibitory concentration (IC50) in data set [7] was determined as 28.2 µM.

In the case of `COC(=O)c1cccc(/C=C2\SC(=S)N([C@H](Cc3ccccc3)C(=O)O)C2=O)c1`, in data set [6], the Activity was found to be 13.2%. Besides, in data set [7], the half-maximal inhibitory concentration (IC50) was 12.5 µM. Moreover, the values for the CC50 at 72 h in data set [1] and in data set [2] were 32.5 µg/mL (≈ 76 µM) and 21.9 µg/mL (≈ 51.2 µM), respectively. For the same molecule, the MIC in data set [3] worked out at 64 µg/mL (≈ 150 µM). Moreover, the inhibition of growth at 10 µg/mL in data set [4] was determined as 0.5%.

For `C[C@H](C(=O)O)N1C(=O)/C(=C/c2ccc(C(=O)O)cc2)SC1=S`, in data set [6], the Activity came to 7.2%. Besides, the IC50 in data set [7] came to 2.9 µM.

Regarding `O=C(O)c1cccc(/C=C2\SC(=S)N([C@H](Cc3ccccc3)C(=O)O)C2=O)c1`, the Activity in data set [6] was determined as 13.4%. The half-maximal inhibitory concentration (IC50) in data set [7] was 9.3 µM. Besides, the 50% cytotoxic concentration (CC50) at 72 h in data set [1] was above 125 µg/mL; in data set [2] it was 102 µg/mL (≈ 246 µM). Further, in data set [3], the MIC is above 64 µg/mL. Also, in data set [4], the inhibition of growth at 10 µg/mL is 23.4%. Further, the inhibition of growth at 100 µg/mL in data set [5] was determined as 54.5%.

In the case of `C[C@H](C(=O)O)N1C(=O)/C(=C/c2cccc(C(=O)O)c2)SC1=S`, in data set [6], the Activity amounted to 12.7%. In addition, the IC50 in data set [7] came to 1.3 µM.

Turning to `COc1cccc(-c2csc(N[C@H](Cc3ccccc3)C(=O)O)n2)c1`, the Activity in data set [6] came out at 91.9%.

Take `COc1ccc(-c2csc(N[C@H](Cc3ccccc3)C(=O)O)n2)cc1`: the Activity in data set [6] was 100%.

As for `O=C(O)c1cccc(Cc2csc(N[C@H](Cc3ccccc3)C(=O)O)n2)c1`, the Activity in data set [6] was 100%.

For `N#Cc1ccc(-c2csc(N[C@H](Cc3ccccc3)C(=O)O)n2)cc1`, the Activity in data set [6] was found to be 35%. Also, the IC50 in data set [7] is 41.3 µM.

In the case of `O=C(O)c1ccc(-c2csc(N[C@H](Cc3ccccc3)C(=O)O)n2)cc1`, the Activity in data set [6] amounted to 100%.
